Measured values from patent US20230139445A1, “BACTERIAL CELLS WITH IMPROVED TOLERANCE TO DIACIDS” (priority 2016, published 2023).
Read-outs that look alike come from different tables or passages of the source.

Key:
[1] = system: Escherichia coli K-12 MG1655 and evolved isolates; type: cell-based; details: 55 g/L malic acid
Method in brief: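 Wild-type MG1655 and evolved isolates, precultured overnight in M9 + 1% glucose at 37 °C, were diluted into M9 + 1% glucose. Growth at 37 °C, 225 rpm, scanned every 15 min; pixel values calibrated to OD600. Diacids tested as sodium salts or neutralized to pH 7.0.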

[2] = system: Escherichia coli K-12 MG1655; assay: Growth of K-12 MG1655 in varying concentrations of fumaric, itaconic, malic and succinic acid, Growth Profiler; type: cell-based
Method in brief: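 Escherichia coli K-12 MG1655 cultures were grown in M9 medium with 1% glucose and challenged with the dicarboxylic acids, supplied as neutral sodium salts or as free acids neutralized to pH 7.0 with sodium hydroxide. Plates were shaken at 225 rpm and 37° C. in a Growth Profiler, scanned every 15 minutes, and green pixel values were converted to OD600 by calibration.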

O=C(O)CC(O)C(=O)O (centres unmarked) [malic acid]
growth rate μ (mean) ([1]; strain ADIP1-1): 0.333 h⁻¹
lag time tlag (mean) ([1]; strain ADIP1-1): 12.8 h
growth rate μ (mean) ([1]; strain ADIP1-9): 0.336 h⁻¹
lag time tlag (mean) ([1]; strain ADIP1-9): 10.7 h
growth rate μ (mean) ([1]; strain ADIP2-5): 0.338 h⁻¹
lag time tlag (mean) ([1]; strain ADIP2-5): 17.9 h
growth rate μ (mean) ([1]; strain ADIP2-6): 0.348 h⁻¹
lag time tlag (mean) ([1]; strain ADIP2-6): 16.8 h
growth rate μ (mean) ([1]; strain ADIP2-10): 0.347 h⁻¹
lag time tlag (mean) ([1]; strain ADIP2-10): 16.8 h
growth rate μ (mean) ([1]; strain ADIP3-2): 0.318 h⁻¹
lag time tlag (mean) ([1]; strain ADIP3-2): 10.7 h
growth rate μ (mean) ([1]; strain ADIP3-4): 0.347 h⁻¹
lag time tlag (mean) ([1]; strain ADIP3-4): 9.9 h
growth rate μ (mean) ([1]; strain ADIP3-8): 0.329 h⁻¹
lag time tlag (mean) ([1]; strain ADIP3-8): 11.4 h
growth rate μ (mean) ([1]; strain ADIP4-1): 0.275 h⁻¹
lag time tlag (mean) ([1]; strain ADIP4-1): 12.1 h
growth rate μ (mean) ([1]; strain ADIP4-8): 0.238 h⁻¹
lag time tlag (mean) ([1]; strain ADIP4-8): 13.4 h
growth rate μ (mean) ([1]; strain ADIP5-2): 0.299 h⁻¹
lag time tlag (mean) ([1]; strain ADIP5-2): 10.1 h
growth rate μ (mean) ([1]; strain ADIP5-6): 0.404 h⁻¹
lag time tlag (mean) ([1]; strain ADIP5-6): 10.2 h
growth rate μ (mean) ([1]; strain ADIP6-3): 0.295 h⁻¹
lag time tlag (mean) ([1]; strain ADIP6-3): 11.6 h
growth rate μ (mean) ([1]; strain ADIP6-9): 0.250 h⁻¹
lag time tlag (mean) ([1]; strain ADIP6-9): 12.7 h
growth rate μ (mean) ([1]; strain ADIP6-10): 0.323 h⁻¹
lag time tlag (mean) ([1]; strain ADIP6-10): 10.0 h
growth rate μ (mean) ([1]; strain ADIP7-2): 0.329 h⁻¹
lag time tlag (mean) ([1]; strain ADIP7-2): 10.3 h
growth rate μ (mean) ([1]; strain ADIP7-5): 0.326 h⁻¹
lag time tlag (mean) ([1]; strain ADIP7-5): 10.2 h
growth rate μ (mean) ([1]; strain ADIP8-3): 0.194 h⁻¹
lag time tlag (mean) ([1]; strain ADIP8-3): 14.4 h
growth rate μ (mean) ([1]; strain ADIP8-7): 0.202 h⁻¹
lag time tlag (mean) ([1]; strain ADIP8-7): 14.9 h
growth rate μ (mean) ([1]; strain ADIP8-10): 0.202 h⁻¹
lag time tlag (mean) ([1]; strain ADIP8-10): 14.2 h
growth rate μ (mean) ([1]; strain GLUT1-3): 0.294 h⁻¹
lag time tlag (mean) ([1]; strain GLUT1-3): 13.5 h
growth rate μ (mean) ([1]; strain GLUT1-9): 0.259 h⁻¹
lag time tlag (mean) ([1]; strain GLUT1-9): 15.3 h
growth rate μ (mean) ([1]; strain GLUT1-10): 0.286 h⁻¹
lag time tlag (mean) ([1]; strain GLUT1-10): 19.2 h
growth rate μ (mean) ([1]; strain GLUT2-1): 0.273 h⁻¹
lag time tlag (mean) ([1]; strain GLUT2-1): 13.7 h
growth rate μ (mean) ([1]; strain GLUT2-9): 0.270 h⁻¹
lag time tlag (mean) ([1]; strain GLUT2-9): 12.5 h
growth rate μ (mean) ([1]; strain GLUT2-10): 0.282 h⁻¹
lag time tlag (mean) ([1]; strain GLUT2-10): 12.2 h
growth rate μ (mean) ([1]; strain GLUT3-5): 0.257 h⁻¹
lag time tlag (mean) ([1]; strain GLUT3-5): 15.4 h
growth rate μ (mean) ([1]; strain GLUT3-7): 0.234 h⁻¹
lag time tlag (mean) ([1]; strain GLUT3-7): 15.5 h
growth rate μ (mean) ([1]; strain GLUT3-9): 0.252 h⁻¹
lag time tlag (mean) ([1]; strain GLUT3-9): 20.5 h
growth rate μ (mean) ([1]; strain GLUT4-1): 0.264 h⁻¹
lag time tlag (mean) ([1]; strain GLUT4-1): 15.9 h
growth rate μ (mean) ([1]; strain GLUT4-4): 0.264 h⁻¹
lag time tlag (mean) ([1]; strain GLUT4-4): 16.5 h
growth rate μ (mean) ([1]; strain GLUT4-10): 0.250 h⁻¹
lag time tlag (mean) ([1]; strain GLUT4-10): 15.6 h
growth rate μ (mean) ([1]; strain GLUT5-4): 0.272 h⁻¹
lag time tlag (mean) ([1]; strain GLUT5-4): 15.3 h
growth rate μ (mean) ([1]; strain GLUT5-5): 0.275 h⁻¹
lag time tlag (mean) ([1]; strain GLUT5-5): 16.6 h
growth rate μ (mean) ([1]; strain GLUT5-9): 0.246 h⁻¹
lag time tlag (mean) ([1]; strain GLUT5-9): 16.4 h
growth rate μ (mean) ([1]; strain GLUT6-4): 0.251 h⁻¹
lag time tlag (mean) ([1]; strain GLUT6-4): 14.5 h
growth rate μ (mean) ([1]; strain GLUT6-5): 0.241 h⁻¹
lag time tlag (mean) ([1]; strain GLUT6-5): 13.8 h
growth rate μ (mean) ([1]; strain GLUT6-10): 0.245 h⁻¹
lag time tlag (mean) ([1]; strain GLUT6-10): 14.8 h
growth rate μ (mean) ([1]; strain GLUT7-2): 0.275 h⁻¹
lag time tlag (mean) ([1]; strain GLUT7-2): 16.1 h
growth rate μ (mean) ([1]; strain GLUT7-6): 0.247 h⁻¹
lag time tlag (mean) ([1]; strain GLUT7-6): 21.9 h
growth rate μ (mean) ([1]; strain GLUT7-7): 0.185 h⁻¹
lag time tlag (mean) ([1]; strain GLUT7-7): 19.1 h
growth rate μ (mean) ([1]; strain GLUT8-5): 0.180 h⁻¹
lag time tlag (mean) ([1]; strain GLUT8-5): 15.8 h
growth rate μ (mean) ([1]; strain GLUT8-6): 0.208 h⁻¹
lag time tlag (mean) ([1]; strain GLUT8-6): 32.7 h
growth rate μ (mean) ([1]; strain GLUT8-9): 0.192 h⁻¹
lag time tlag (mean) ([1]; strain GLUT8-9): 47.7 h
growth rate μ (mean) ([1]; strain MG1655 (Table 26)): 0.235 h⁻¹
lag time tlag (mean) ([1]; strain MG1655 (Table 26)): 17.1 h
growth rate μ (mean) ([1]; strain MG1655 (Table 27)): 0.222 h⁻¹
lag time tlag (mean) ([1]; strain MG1655 (Table 27)): 16.5 h
μ (mean) ([2]; growth rate of K-12 MG1655, 10 g/L diacid (sodium salt)): 0.686 h^1
μ (mean) ([2]; growth rate of K-12 MG1655, 20 g/L diacid (sodium salt)): 0.639 h^1
μ (mean) ([2]; growth rate of K-12 MG1655, 30 g/L diacid (sodium salt)): 0.526 h^1
μ (mean) ([2]; growth rate of K-12 MG1655, 40 g/L diacid (sodium salt)): 0.410 h^1
μ (mean) ([2]; growth rate of K-12 MG1655, 50 g/L diacid (sodium salt)): 0.287 h^1
μ (mean) ([2]; growth rate of K-12 MG1655, 60 g/L diacid (sodium salt)): 0.154 h^1
tlag (mean) ([2]; lag time of K-12 MG1655, 10 g/L diacid (sodium salt)): 5.9 h
tlag (mean) ([2]; lag time of K-12 MG1655, 20 g/L diacid (sodium salt)): 6.6 h
tlag (mean) ([2]; lag time of K-12 MG1655, 30 g/L diacid (sodium salt)): 8.0 h
tlag (mean) ([2]; lag time of K-12 MG1655, 40 g/L diacid (sodium salt)): 11.1 h
tlag (mean) ([2]; lag time of K-12 MG1655, 50 g/L diacid (sodium salt)): 16.9 h
tlag (mean) ([2]; lag time of K-12 MG1655, 60 g/L diacid (sodium salt)): 28.3 h
